# Test results reported in ChEMBL document CHEMBL4765295, “Synthesis, pharmacological profile and 2D-QSAR studies of curcumin-amino acid conjugates as potential drug candidates” (Eur J Med Chem, 2020).
# “And” between values parts separate entries of the source, which are not always exact repeats. Identical values can stand only once.
# What was measured:
# Mus musculus [1] = assay: Analgesic activity in albino mouse assessed as forepaw licking/jumping latency time at 10 mg/kg, ip measured after 30 mins by hot plate test (reference value: 5.02 +/- 0.09 sec); assay type: functional; conditions: 0.5 h
# Rattus norvegicus [2] = assay: Anti-inflammatory activity in Wistar rat assessed as inhibition of carrageenan-induced paw edema at 10 mg/kg, ip pretreated for 1 hr followed by carrageenan challenge and measured after 2 hr relative to control (reference value: 0.00 +/-0.03 %); assay type: functional; conditions: time 3 hrs
# Mus musculus [3] = assay: Analgesic activity in albino mouse assessed as protection at 10 mg/kg, ip measured after 60 mins by hot plate test (reference value: 0 %); assay type: functional; conditions: 1 h
# Rattus norvegicus [4] = assay: Antiinflammatory activity in Wistar rat model of carrageenan-induced paw edema assessed as reduction in thickness of paw edema at 10 mg/kg, ip pretreated for 1 hr followed by carrageenan challenge and measured after 3 hrs (reference value: 1.79 +/-0.07 mm); assay type: functional; conditions: time 4 hrs
# Mus musculus [5] = assay: Analgesic activity in albino mouse assessed protection against acetic acid-induced abdominal writhing at 10 mg/kg, ip pretreated for 1 hr followed by acetic acid challenge and measured starting 5 mins post acetic acid challenge for 10 mins relative to control (reference value: 0 %); assay type: functional; conditions: time 75 min, 1.25 h
# Mus musculus [6] = assay: Analgesic activity in albino mouse assessed reduction in acetic acid-induced abdominal writhing by measuring writing reflex at 10 mg/kg, ip pretreated for 1 hr followed by acetic acid challenge and measured starting 5 mins post acetic acid challenge for 10 mins (reference value: 42.4 +/- 1.02); assay type: functional; conditions: time 75 min, 1.25 h
# Peritoneal macrophage [7] = assay: Antiinflammatory activity in […] mouse Peritoneal macrophages assessed as reduction in LPS-induced NO production by measuring reduction in stimulation index at 10 uM preincubated for 1 hr followed by LPS stimulation measured after 24 hrs by Griess method (reference value: 27.31 +/- 2.56 uM); assay type: functional; conditions: time 25 hrs
# Salmonella typhimurium = assay: Antibacterial activity against Salmonella typhimurium ATCC 19430 incubated for 18 hrs by agar dilution assay; assay type: functional, Salmonella enterica subsp. enterica serovar Typhimurium; conditions: Salmonella enterica
# [8] = Ulcerogenic activity in fasted albino mouse assessed as incidence of gastric ulceration at 10 mg/kg, po for 3 days (reference value: 0 %); assay type: toxicity, organism-based; conditions: in vivo, 72 h, time 3 day
# Rattus norvegicus [9] = assay: Anti-inflammatory activity in Wistar rat assessed as inhibition of carrageenan-induced paw edema at 10 mg/kg, ip pretreated for 1 hr followed by carrageenan challenge and measured after 4 hr relative to indomethacin; assay type: functional; conditions: time 5 hrs
# Splenocyte [10] = assay: Immunomodulatory activity in Swiss albino mouse splenocytes assessed as cell viability at 10 uM by measuring stimulation index incubated for 72 hrs in presence of mitogenic stimulus phytohaemagglutinin by MTT assay (reference value: 1.00 +/- 0.24); assay type: functional
# [11] = Ulcerogenic activity in fasted albino mouse assessed as ulcer index in gastric mucosa at 10 mg/kg, po for 3 days (reference value: 0); assay type: toxicity, organism-based; conditions: in vivo, 72 h, time 3 day
# Splenocyte [12] = assay: Immunomodulatory activity in Swiss albino mouse splenocytes assessed as cell viability at 10 uM by measuring inhibition of stimulation index incubated for 72 hrs in presence of mitogenic stimulus phytohaemagglutinin by MTT assay relative to indomethacin; assay type: functional; conditions: read-out: Activity
# [13] = Ulcerogenic activity in fasted albino mouse assessed as average severity of ulcers in gastric mucosa at 10 mg/kg, po for 3 days (reference value: 0); assay type: toxicity, organism-based; conditions: in vivo, 72 h, time 3 day
# Mus musculus [14] = assay: Analgesic activity in albino mouse assessed as forepaw licking/jumping latency time at 10 mg/kg, ip measured after 120 mins by hot plate test (reference value: 2.62 +/- 0.06 sec); assay type: functional; conditions: 2 h
# Mus musculus [15] = assay: Analgesic activity in albino mouse assessed as forepaw licking/jumping latency time at 10 mg/kg, ip measured after 60 mins by hot plate test (reference value: 3.42 +/- 0.03 sec); assay type: functional; conditions: 1 h
# Rattus norvegicus [16] = assay: Antiinflammatory activity in Wistar rat model of carrageenan-induced paw edema assessed as reduction in thickness of paw edema at 10 mg/kg, ip pretreated for 1 hr followed by carrageenan challenge and measured after 2 hrs (reference value: 2.06 +/-0.09 mm); assay type: functional; conditions: time 3 hrs
# Rattus norvegicus [17] = assay: Antiinflammatory activity in Wistar rat model of carrageenan-induced paw edema assessed as reduction in thickness of paw edema at 10 mg/kg, ip pretreated for 1 hr followed by carrageenan challenge and measured after 24 hrs (reference value: 0.83 +/-0.08 mm); assay type: functional; conditions: time 25 hrs
# Mus musculus [18] = assay: Analgesic activity in albino mouse assessed as protection at 10 mg/kg, ip measured after 120 mins by hot plate test relative to indomethacin; assay type: functional; conditions: 2 h
# Rattus norvegicus [19] = assay: Anti-inflammatory activity in Wistar rat assessed as inhibition of carrageenan-induced paw edema at 10 mg/kg, ip pretreated for 1 hr followed by carrageenan challenge and measured after 24 hr relative to control (reference value: 0.00 +/-0.3 %); assay type: functional; conditions: time 25 hrs
# Mus musculus [20] = assay: Analgesic activity in albino mouse assessed as protection at 10 mg/kg, ip measured after 30 mins by hot plate test (reference value: 0 %); assay type: functional; conditions: 0.5 h
# [21] = Toxicity in albino mouse assessed as induction of toxic symptoms at 50 to 100 mg/kg, ip measured after 24 hrs; assay type: organism-based; conditions: in vivo, dose 50-100 mg/kg
# Rattus norvegicus [22] = assay: Anti-inflammatory activity in Wistar rat assessed as inhibition of carrageenan-induced paw edema at 10 mg/kg, ip pretreated for 1 hr followed by carrageenan challenge and measured after 3 hr relative to control (reference value: 0.00 +/-0.1 %); assay type: functional; conditions: time 4 hrs
# Rattus norvegicus [23] = assay: Antiinflammatory activity in Wistar rat model of carrageenan-induced paw edema assessed as reduction in thickness of paw edema at 10 mg/kg, ip pretreated for 1 hr followed by carrageenan challenge and measured after 4 hrs (reference value: 1.40 +/-0.10 mm); assay type: functional; conditions: time 5 hrs
# Mus musculus [24] = assay: Analgesic activity in albino mouse assessed as protection at 10 mg/kg, ip measured after 90 mins by hot plate test (reference value: 0 %); assay type: functional; conditions: 1.5 h
# Rattus norvegicus [25] = assay: Antiinflammatory activity in Wistar rat model of carrageenan-induced paw edema assessed as reduction in thickness of paw edema at 10 mg/kg, ip pretreated for 1 hr followed by carrageenan challenge and measured after 1 hr (reference value: 2.41 +/-0.05 mm); assay type: functional; conditions: time 1 hr after carrageenan
# Staphylococcus aureus = assay: Antibacterial activity against Staphylococcus aureus ATCC 25923 incubated for 18 hrs by agar dilution method; assay type: functional
# [26] = Ulcerogenic activity in fasted albino mouse assessed as average number of ulcers in gastric mucosa at 10 mg/kg, po for 3 days (reference value: 0); assay type: toxicity, organism-based; conditions: in vivo, 72 h, time 3 day
# Candida albicans = assay: Antifungal activity against Candida albicans incubated for 18 to 24 hrs by CLSI method; assay type: functional; conditions: time 18-24 hrs
# Mus musculus [27] = assay: Analgesic activity in albino mouse assessed as protection at 10 mg/kg, ip measured after 120 mins by hot plate test (reference value: 0 %); assay type: functional; conditions: 2 h
# Pseudomonas aeruginosa = assay: Antibacterial activity against Pseudomonas aeruginosa ATCC 27853 incubated for 18 hrs by agar dilution assay; assay type: functional
# Rattus norvegicus [28] = assay: Anti-inflammatory activity in Wistar rat assessed as inhibition of carrageenan-induced paw edema at 10 mg/kg, ip pretreated for 1 hr followed by carrageenan challenge and measured after 4 hr relative to control (reference value: 0.00 +/-0.4 %); assay type: functional; conditions: time 5 hrs
# Mus musculus [29] = assay: Analgesic activity in albino mouse assessed protection against acetic acid-induced abdominal writhing at 10 mg/kg, ip pretreated for 1 hr followed by acetic acid challenge and measured starting 5 mins post acetic acid challenge for 10 mins relative to indomethacin; assay type: functional; conditions: time 75 min, 1.25 h
# Peritoneal macrophage [30] = assay: Antiinflammatory activity in […] mouse Peritoneal macrophages assessed as inhibition of LPS-induced NO production at 10 uM preincubated for 1 hr followed by LPS stimulation measured after 24 hrs by Griess method relative to control (reference value: 0.0 %); assay type: functional; set-up: scale not given: the % may be the effect or the level left; conditions: time 25 hrs
# Mus musculus [31] = assay: Analgesic activity in albino mouse assessed as forepaw licking/jumping latency time at 10 mg/kg, ip measured after 90 mins by hot plate test (reference value: 2.72 +/- 0.01 sec); assay type: functional; conditions: 1.5 h
# Rattus norvegicus [32] = assay: Anti-inflammatory activity in Wistar rat assessed as inhibition of carrageenan-induced paw edema at 10 mg/kg, ip pretreated for 1 hr followed by carrageenan challenge and measured after 1 hr relative to control (reference value: 0.00 +/-0.02 %); assay type: functional; conditions: time 2 hrs
# Streptococcus pyogenes = assay: Antibacterial activity against Streptococcus pyogenes ATCC 19615 incubated for 18 hrs by agar dilution method; assay type: functional
Compound,Time (Mus musculus [1]) [s],inhibition in vivo at 10 mg/kg (Rattus norvegicus [2]) [%],Activity (Mus musculus [3]) [%],Activity (Rattus norvegicus [4]) [mm],Activity (Mus musculus [5]) [%],Activity (Mus musculus [6]),Activity (Peritoneal macrophage [7]) [µM],MIC (Salmonella typhimurium),Activity [8] [%],inhibition in vivo at 10 mg/kg (Rattus norvegicus [9]) [%],Activity_index (Splenocyte [10]),UI [11],viability at 10 µM (Splenocyte [12]) [%],Activity [13],Time (Mus musculus [14]) [s],Time (Mus musculus [15]) [s],Activity (Rattus norvegicus [16]) [mm],Activity (Rattus norvegicus [17]) [mm],Activity (Mus musculus [18]) [%],inhibition in vivo at 10 mg/kg (Rattus norvegicus [19]) [%],further results
COc1cc(/C=C/C(=O)/C=C(O)/C=C/c2ccc(OC(=O)[C@@H](C)NC(=O)OCc3ccccc3)c(OC)c2)ccc1OC(=O)[C@@H](C)NC(=O)OCc1ccccc1,5.6,89,8.2,0.09,66,14.4,17.63,0.5 µg/mL and 0.642 µM,0,115,1.59,0,76,0,3.28,3.7,0.23,0.42,60,49,Activity (Mus musculus [20]): 11.6%; Activity [21]: Non-Toxic; inhibition in vivo at 10 mg/kg (Rattus norvegicus [22]): 95%; Activity (Rattus norvegicus [23]): 0 mm; Activity (Mus musculus [24]): 25.7%; Activity (Rattus norvegicus [25]): 0.43 mm; MIC (Staphylococcus aureus): 0.5 µg/mL and 0.642 µM; Activity [26]: 0; MIC (Candida albicans): 0.5 µg/mL and 0.642 µM; Activity (Mus musculus [27]): 25.2%; MIC (Pseudomonas aeruginosa): 1 µg/mL and 1.28 µM; inhibition in vivo at 10 mg/kg (Rattus norvegicus [28]): 100%; Activity (Mus musculus [29]): 107.1%; Activity (Peritoneal macrophage [30]): 35.45%; Time (Mus musculus [31]): 3.42 s; inhibition in vivo at 10 mg/kg (Rattus norvegicus [32]): 82%; MIC (Streptococcus pyogenes): 0.125 µg/mL and 0.161 µM
COc1cc(/C=C/C(=O)CC(=O)/C=C/c2ccc(O)c(OC)c2)ccc1O [CURCUMIN],5.04,60,35.1,0.45,52.1,20.3,17.18,0.125 µg/mL and 0.339 µM,3.33,98,1.52,3.99,79.5,0.33,3.46,4.62,0.82,0.53,76.4,36,Activity (Mus musculus [20]): 0.4%; inhibition in vivo at 10 mg/kg (Rattus norvegicus [22]): 75%; Activity (Rattus norvegicus [23]): 0.21 mm; Activity (Mus musculus [24]): 66.9%; Activity (Rattus norvegicus [25]): 2.12 mm; MIC (Staphylococcus aureus): 0.339 µM; Activity [26]: 0.33; MIC (Candida albicans): 0.125 µg/mL and 0.339 µM; Activity (Mus musculus [27]): 32.1%; MIC (Pseudomonas aeruginosa): 0.125 µg/mL and 0.339 µM; inhibition in vivo at 10 mg/kg (Rattus norvegicus [28]): 85%; Activity (Mus musculus [29]): 84.6%; Activity (Peritoneal macrophage [30]): 37.11%; Time (Mus musculus [31]): 4.54 s; inhibition in vivo at 10 mg/kg (Rattus norvegicus [32]): 12%; MIC (Streptococcus pyogenes): 0.125 µg/mL and 0.339 µM
